Results reported in paper PMC8119899, “A Single Mutation in the Outer Lipid-Facing Helix of a Pentameric Ligand-Gated Ion Channel Affects Channel Function Through a Radially-Propagating Mechanism” (Frontiers in Molecular Biosciences, 2021).
Where a chain is given by its changes, count along the chain named.

Assays:
[1] = target: T1, 5-HT3A receptor F242A (Mus musculus, UniProt P23979, F269A); experiment: FlexStation membrane potential dye, 5-HT response, F242A receptor in HEK293 cells; assay type: cell-based; details: mean and SEM, n ≥ 3
T1 construct: expressed in transfected cells; host or cells: HEK293
T1 sequence (P23979 24-489 F269A): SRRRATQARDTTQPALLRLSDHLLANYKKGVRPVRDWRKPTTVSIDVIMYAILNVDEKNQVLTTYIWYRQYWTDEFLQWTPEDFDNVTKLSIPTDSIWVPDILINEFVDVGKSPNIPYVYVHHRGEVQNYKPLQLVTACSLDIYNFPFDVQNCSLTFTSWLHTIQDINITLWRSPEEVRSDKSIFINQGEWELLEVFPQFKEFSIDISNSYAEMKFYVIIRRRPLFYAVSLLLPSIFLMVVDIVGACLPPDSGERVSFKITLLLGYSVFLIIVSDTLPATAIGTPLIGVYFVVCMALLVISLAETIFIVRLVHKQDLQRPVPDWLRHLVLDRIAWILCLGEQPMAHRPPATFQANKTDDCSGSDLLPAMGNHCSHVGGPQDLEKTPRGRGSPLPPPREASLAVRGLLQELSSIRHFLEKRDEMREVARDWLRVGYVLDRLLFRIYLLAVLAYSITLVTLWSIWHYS
Protocol: (§1) The mouse 5-HT3A cDNA (Q6J1J7) in pcDNA3.1 (for HEK cell transfection) or pGEMHE (for RNA production) was modified by QuikChange site-directed mutagenesis (Agilent Technologies) to create point mutants (verified by sequencing).
(§2) Human embryonic kidney (HEK) 293 cells were maintained at 37 °C at 5% CO2 in a humidified atmosphere, in Dulbecco's Modified Eagle's Medium/Nutrient Mix F12 (1:1) (Invitrogen, Paisley, UK) with GlutaMAX^TM and 10% fetal bovine serum (GE Healthcare) (DMEM/FBS) and passaged when confluent.
(§3) As described previously (Price and Lummis, [2005]) cells were incubated for 45 min with fluorescent membrane potential-sensitive dye (Membrane Potential Blue kit, Molecular Devices) diluted in Flex buffer (10 mM HEPES, 115 mM NaCl, 1 mM KCl, 1 mM CaCl2, 1 mM MgCl2, and 10 mM glucose, pH 7.4), and subsequently assayed at room temperature for 180 s, with readings every 2 s. […] (log of the concentration of ligand), a is the minimum response, b is the maximum response, and nH is the Hill slope.

[2] = target: T2, 5-HT3A receptor S297A (Mus musculus, UniProt P23979, S324A); experiment: FlexStation membrane potential dye, 5-HT response, S297A receptor in HEK293 cells; assay type: cell-based; details: mean and SEM, n ≥ 3
T2 construct: expressed in transfected cells; host or cells: HEK293
T2 sequence (P23979 24-489 S324A): T1 sequence (P23979 24-489 F269A) with A246F, S301A
Protocol: as §1, §2, §3

**Q.** Which nH [1] does the source give for NCCc1c[nH]c2ccc(O)cc12 [5-HT] here?
**A.** 3.8 ± 0.8

**Q.** And the nH [2]?
**A.** 3.5 ± 0.8
